These results are taken from ChEMBL document CHEMBL1777693, “New halogenated phenylcoumarins as tyrosinase inhibitors” (Bioorg Med Chem Lett, 2011).

A value given as a limit tells only on which side of the number the result lay.

The IC50 is the point on the concentration scale where inhibition reaches its midpoint. The low end stands for greater potency, the high end for weaker potency. As usually defined, the Ki is the equilibrium dissociation constant of an inhibitor or competing ligand from its target.

In one test the target is T1, Tyrosinase (Agaricus bisporus, UniProt O42713).
T1 sequence (O42713 whole entry): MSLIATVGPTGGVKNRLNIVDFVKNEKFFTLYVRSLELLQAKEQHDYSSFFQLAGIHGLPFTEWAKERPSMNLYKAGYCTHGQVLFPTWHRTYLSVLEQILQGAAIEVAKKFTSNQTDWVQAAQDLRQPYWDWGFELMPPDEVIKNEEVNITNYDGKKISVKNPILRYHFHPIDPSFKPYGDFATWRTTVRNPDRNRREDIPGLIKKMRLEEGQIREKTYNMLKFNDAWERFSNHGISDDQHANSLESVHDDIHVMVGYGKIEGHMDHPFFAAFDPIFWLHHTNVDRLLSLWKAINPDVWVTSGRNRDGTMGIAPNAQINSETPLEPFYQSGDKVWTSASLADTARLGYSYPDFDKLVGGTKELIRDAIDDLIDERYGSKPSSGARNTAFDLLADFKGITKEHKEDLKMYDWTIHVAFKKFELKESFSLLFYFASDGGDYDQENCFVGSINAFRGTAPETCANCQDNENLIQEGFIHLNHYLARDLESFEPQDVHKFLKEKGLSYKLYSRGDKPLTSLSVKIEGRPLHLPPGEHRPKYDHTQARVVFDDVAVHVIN
Briefly: Inhibition of mushroom tyrosinase using L-3,4- dihydroxyphenylalanine as substrate measured for 5 mins by spectrophotometric analysis.
Compound `O=c1oc2c(O)cccc2cc1-c1ccc(O)cc1` yielded a half-maximal inhibitory concentration (IC50) of 1300 µM.

As for `CCOc1cccc2cc(-c3ccccc3)c(=O)oc12`, the half-inhibitory concentration (IC50) was determined as 2070 µM.

`CCOc1cccc2cc(-c3ccc(OC)cc3)c(=O)oc12` displayed a 50% inhibitory concentration (IC50) greater than 5000 µM.

For the compound `COc1ccc(-c2cc3cc(Br)cc(OC)c3oc2=O)cc1`, 1360 µM corresponded to half-maximal inhibition (IC50).

The compound `COc1cc(Br)cc2cc(-c3ccccc3)c(=O)oc12` gave a concentration for half-maximal inhibition (IC50) greater than 5000 µM.

`O=c1oc2c(O)cccc2cc1-c1ccccc1`: the IC50 is greater than 5000 µM.

`O=c1oc2c(O)cc(Br)cc2cc1-c1ccccc1` displayed a 50% inhibitory concentration (IC50) of 302 µM.

Regarding `O=c1oc2c(O)cc(Br)cc2cc1-c1ccc(O)cc1`, half-maximal inhibition (IC50) was put at 215 µM.

The target of the next test is T1, Tyrosinase. Briefly: Non-competitive inhibition of mushroom tyrosinase using L-3,4- dihydroxyphenylalanine as substrate by Lineweaver-Burk double reciprocal plot analysis.
For `O=c1oc2c(O)cc(Br)cc2cc1-c1ccc(O)cc1`, the Ki came out at 189 µM.

The next test concerns the target T2, Tyrosinase (Homo sapiens, UniProt P14679).
T2 sequence (P14679 whole entry): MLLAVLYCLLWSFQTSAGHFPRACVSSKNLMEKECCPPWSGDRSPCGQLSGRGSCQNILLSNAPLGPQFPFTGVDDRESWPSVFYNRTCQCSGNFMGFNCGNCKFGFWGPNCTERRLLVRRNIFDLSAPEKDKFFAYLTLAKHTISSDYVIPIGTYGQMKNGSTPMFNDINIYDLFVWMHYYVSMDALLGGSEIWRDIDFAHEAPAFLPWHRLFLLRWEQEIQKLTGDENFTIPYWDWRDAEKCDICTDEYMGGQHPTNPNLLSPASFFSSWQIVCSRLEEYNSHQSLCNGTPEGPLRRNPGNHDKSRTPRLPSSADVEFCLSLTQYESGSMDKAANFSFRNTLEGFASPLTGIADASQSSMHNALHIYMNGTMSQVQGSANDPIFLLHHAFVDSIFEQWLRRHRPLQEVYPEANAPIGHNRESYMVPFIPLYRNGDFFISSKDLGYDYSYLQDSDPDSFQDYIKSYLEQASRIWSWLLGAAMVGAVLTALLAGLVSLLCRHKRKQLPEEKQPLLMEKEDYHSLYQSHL
Kind of test: Inhibition of tyrosinase.
`O=c1oc2cc(O)ccc2cc1-c1ccccc1` returned an IC50 greater than 10000 µM.

With `O=c1oc2cc(O)ccc2cc1-c1cc(O)cc(O)c1`, the IC50 is greater than 10000 µM.

For the compound `O=c1ccc2ccc(O)cc2o1` [UMBELLIFERONE], the IC50 was found to be 420 µM.

With `Oc1ccc(/C=C/c2cc(O)cc(O)c2)cc1` [RESVERATROL], the midpoint of inhibition, the IC50, lay at 3680 µM.
